Results on one compound are retold here after patent US12053480B2, “Methods and pharmaceutical compositions for treating peripheral demyelinating diseases” (INSERM (INSTITUT NATIONAL DE LA SANTE ET DE LA RECHERCHE …, priority 2015, dated 2024).

“Also recorded” adds a separate entry of the source.

In assay [1] the test system is CMT1A rats. As to the kind of experiment: Behavioral motor tests (rotarod, grip, CatWalk) in CMT1A rats. It counts as in vivo, rat. As to the method: […] Mice and rats were first given a pretraining trial of two days to familiarize them with the rotating rod. For control and diabetic mice latency to fall was measured at fixed speed 10 rpm over a 180 s time as a cut-off. No acceleration testing was performed for mice. For control and CMT1A rats latency to fall and maximum rpm (revolutions per minute) were measured at accelerated speed. […] Each animal underwent three trials a day. For each day, data were averaged for each animal (values from the three trials), normalized according to animal weight and then averaged for each treated group.
Detailed analysis of gait was performed on free-walking 16 weeks old diabetic mice and 12 weeks old CMT1A rats using the CatWalk method (CatWalk XT 10.5, Noldus Information Technology) during PBS or TRO19622 treatment. The runs were analyzed when the speed of crossing was constant and homogenous. At least three compliant runs were analyzed for each animal Data were averaged per animal, normalized according to animal weight and then per treated group. The resulting data provided quantitative parameters and qualitative walking patterns.
Neuromuscular strength of diabetic mice and CMT rats was assessed in standardized grip strength tests for front, hind and all limbs. All limbs grip strength was measured by rat supporting on the metal grid and pulling the animal's tail toward a horizontal grid connected to a gauge. Front and hind limb grip strength were measured by supporting the forelimbs or hindlimbs respectively and pulling the animal's tail toward a horizontal T-bar connected to a gauge. The maximum force (measured in newtons) exerted onto the T-bar or grid before the animals lost grip was recorded, and the mean of 3 repeated measurements was calculated. All data were normalized according to animal weight.
Finally, we studied the neuromuscular performance of CMT1A and control rats using behavioral motor tests. […] Moreover, using catwalk test we observed a decrease of paw time stand (FIG. 2B), hind paw distance (FIG. 2C) and an increase of paw print area (FIG. 2D). […] Therefore inhibiting mitochondrial calcium release through VDAC1 opens a major avenue toward the treatment of human CMT1A.

The target in assay [2] is T1, VDAC1 (Mus musculus, UniProt Q60932).
T1 construct: strongly expressed in mSC mitochondria; from tissue; host or cells: myelinating Schwann cells (mSC) of the sciatic nerve of living mice (wild type; db/db and +/db in A10)
In words: Mitochondrial calcium imaging (mito-GCaMP2, multiphoton) in mSC of mouse sciatic nerve, nerve crush model. It counts as in vivo. The following applies: mito-GCaMP2; VDAC1 silenced or drug given before crush. How it is done: Mice were anesthetized with isoflurane inhalation and placed under a Stemi2000 microscope (Zeiss). Incision area was shaved and cleaned using betadine solution. After incision, the gluteus superficialis and biceps femoris muscles were separated to reveal the cavity traversed by the sciatic nerve. The nerve was lift out using spatula and a thin glass needle filled with viral solution (8 μl) was introduced into the nerve with a micromanipulator. This solution was injected over 30 min with short pressure pulses using a Picospritzer III (Parker Hannifin) coupled to a pulse generator. After injection, the nerve was replaced into the cavity, the muscles were readjusted, and the wound was closed using clips (for further details see Gonzalez et al., 2014^3).
TRO19622 drug (Tocris bioscience, Ref. 2906) was diluted in ethanol to 20 mM and then, the solution was diluted in sterile PBS to 20 μM. TRO19622 treatments were realized by 3 mg/kg intraperitoneal (IP) injections of 20 mM solution or by intra sciatic nerve injections of 2 μl of drug solution 2 μM using a Hamilton syringe or a glass needle in sterile conditions 30 minutes before multiphoton image acquisitions or immunohistochemistry and demyelination studies respectively. Methyl jasmonate drug (Sigma-Aldrich, Ref. 392707) was diluted in 1 ml of sterile PBS to 1M or 3M. Methyl jasmonate treatments were realized by intra sciatic nerve injections of 1 μl of drug solution using a glass needle and micromanipulator in sterile conditions following the same virus injections procedure (see in vivo virus injection in the sciatic nerve method) two hours before multiphoton image acquisition. […] All drug concentrations were previously evaluated by Bordet et al, 2007^5; Goldin et al, 2008^6; Sharov et al, 2007^7.
First injected mouse was anesthetized with 5% of isoflurane a 1.5% of oxygen into the anesthesia system box (World Precision Instruments, Ref. EZ-B800) for 5 minutes. Anesthesia controls were realized^8. Then, mouse was placed in anesthesia mask and the incision area was shaved and cleaned with betadine and ethanol 70% solution. Incision was realized using a scalpel and the skin was retracted using forceps in order to expose the gluteus superficialis and bleeps femoris muscles. Next, the connective tissue that connects both muscles was cut and the sciatic nerve was gently lifted out using a spatula. A flexible bridge was slide below sciatic nerve and it was placed into a plastic first pool fixed to the bridge. Mouse was placed under the multiphoton microscope, the bridge was fixed using magnetic brackets to avoid physiological movement and mouse legs were fixed using clippers. Microscope dark box temperature is controlled to 37° C. during all time-lapse imaging. Finally, a second pool was fixed to the first pool using a drop of agarose low melting 3% (Promega, Ref. V2111) in Leibovitz's L15 medium (Gibco Life Technologies) and filled with deionized water to immerse the objectives 20× or 63× (Carl Zeiss Microscopy).
All time-lapse images were obtained with a multiphoton microscope Zeiss LSM 7 MP OPO. Mitochondria motility images were acquired by time-lapse recording of one image every five minutes during five hours at 920 nm. GCaMP2 and SypHer probe images were acquired by time-lapse recording of one image every fifteen minutes during five hours at 985 nm. Images were acquired to constant 1% of laser intensity to 100 msec of acquisition time with 512×512 resolution and 10 images of z-stack of 20 μm. Images were saved in Zeiss .czi format and processed using Image J program. For further details see Gonzalez et al., 201X^8
To characterize mitochondria physiology during the demyelination process we combined two in vivo methods. We used the nerve crush model to reliably induce demyelination in the mouse sciatic nerve and a viral approach^19 allowing the expression of different fluorescent probes selectively into mitochondria of myelinating Schwann cells (mSC) in mouse sciatic nerve.

The mark [3] stands for this setting: CMT1A rats treated for one month.

T1 sequence (Q60932 14-296): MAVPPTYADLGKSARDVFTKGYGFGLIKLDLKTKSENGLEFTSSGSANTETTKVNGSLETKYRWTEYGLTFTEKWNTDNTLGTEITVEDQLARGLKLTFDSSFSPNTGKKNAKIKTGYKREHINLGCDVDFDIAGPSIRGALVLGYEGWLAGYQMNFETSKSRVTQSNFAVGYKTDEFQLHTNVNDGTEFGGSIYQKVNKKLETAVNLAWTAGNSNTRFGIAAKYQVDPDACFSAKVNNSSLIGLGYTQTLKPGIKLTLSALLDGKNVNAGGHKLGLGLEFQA

Take `CC(C)CCC[C@@H](C)[C@H]1CC[C@H]2[C@@H]3CCC4=C/C(=N\O)CC[C@]4(C)[C@H]3CC[C@]12C` [TRO19622, (NZ)—N-[(8S,9S,10R,13R,14S,17R)-10,13-dimethyl-17-[(2R)-6-methylheptan-2-yl]-1,2,6,7,8,9,11,12,14,15,16,17-dodecahydrocyclopenta[a]phenanthren-3-ylidene]hydroxylamine]: in assay [1] (setting [3]), the grip strength result was “significant increase” and the “latency on accelerating rotarod” value is listed as “significant increase”. In addition, the “effects on demyelination, g-ratio and behavioral motor tests after stopping the treatment” value in assay [1] (CMT1A rats, 2 months after stopping the treatment) is on record as “disappeared; also recorded: did not last”. In assay [1] (CMT1A rats, catwalk test), the hind paw distance result is recorded as “decrease”, the paw print area result is reported as “increase” and the paw time stand result was “decrease”. Moreover, the “mitochondrial calcium release in mSC after nerve crush” value in assay [2] is on record as “able to block calcium release from mitochondria; also recorded: completely abolished; also recorded: blocks mitochondrial calcium release”.
